How the values were obtained:
Type in all cases: cell-based, human
HepG2 cells = test: Intracellular triglyceride level in HepG2 cells after 48 hours incubation; settings: for increase in TG synthesis compared to vehicle: 10 μM ARA, 1 μM T1317
Protocol: FIG. 1 depicts the measurement of intracellular triglyceride level in HepG2 cells after 48 hours incubation with one or more selected from arachidonic acid, T0901317, and MN-001. Y-axis: Δ intracellular triglycerides (μg/mg/protein). HepG2 cells (derived from human hepatocellular carcinoma samples) were incubated with one or more selected from 10 μM arachidonic acid (ARA), 1 μM LXR agonist T0901317 (“T1317”), and 10 μM MN-001 for 48 hours. T1317 stimulates LXR-SREBP-1c ChREPB signal, increases triglyceride (TG) synthesis in liver and exacerbates fatty liver. The intracellular triglyceride level was measured after the treatment (FIG. 1).

CD36 = CD36 mRNA expression in HepG2 cells by qPCR; settings: 48 hours
Text: FIG. 2 depicts the measurement of CD36 mRNA expression levels from HepG2 cells after treatment with one or more selected from arachidonic acid, T0901317, and MN-001. Y-axis: relative mRNA expression (arbitrary units) compared to a control.
(§1) The effect of MN-001 on the mRNA expression of molecules related to TG metabolism: (1) fatty acid translocase/CD36, which is involved in the uptake of ARA into hepatocytes in the liver, and (2) ABCG1, which plays a role in controlling tissue lipid levels by mediating transfer of cellular cholesterol to HDL, were also investigated by measuring extracted RNA from HepG2 cells and using real-time PCR. To this end, RNA was extracted from HepG2 cells (after treatment with one or more selected from 10 μM arachidonic acid (ARA), 1 μM T1317, and 10 μM MN-001 for 48 hours) and converted to cDNA.
After conversion to cDNA, the CD36 mRNA expression levels were measured by qPCR (FIG. 2). […] Saturated fatty acids (e.g., palmitic acid, stearic acid) and fructose induce adipogenic pathways and promote fat accumulation by increasing CD36 expression and modulating ChREBP, which regulates lipogenesis.

ABCG1 = ABCG1 mRNA expression in HepG2 cells by qPCR; settings: 48 hours, 10 μM MN-001, 10 μM ARA
Text: FIG. 3 depicts the measurement of ABCG1 mRNA expression levels from HepG2 cells after treatment with one or more selected from arachidonic acid, T0901317, and MN-001. Y-axis: relative mRNA expression (arbitrary units) compared to a control.
as §1
In addition, the ABCG1 mRNA expression levels were also measured by qPCR (FIG. 3). ABCG1 is known to be highly expressed in lipid-loaded macrophages and mediates cholesterol efflux to HDL. ABCG1 deficiency leads to profound intracellular cholesterol accumulation in macrophages and hepatocytes.

[1] = 10 μM MN-001 added to 10 μM ARA

SMILES	increase in TG synthesis compared to vehicle (HepG2 cells) [fold]	increase of CD36 expression compared to control (CD36; 10 μM ARA) [fold]	upregulation of ABCG1 expression compared to control (ABCG1) [fold]	suppression of the increase in TG synthesis by T1317 (HepG2 cells; 10 μM MN-001 added to 1 μM T1317) [fold]	suppression of the increase in TG synthesis by a combination of T1317 and ARA (HepG2 cells; 10 μM MN-001 added to 1 μM T1317 and 10 μM ARA) [fold]	suppression of the increase in TG synthesis by ARA (HepG2 cells; [1]) [fold]	lowering of CD36 expression (CD36; 10 μM MN-001, in the absence of ARA) [%]	lowering of CD36 expression (CD36; 10 μM MN-001, in the presence of ARA (10 μM)) [%]	suppression of CD36 expression compared to ARA alone (CD36; [1]) [fold]	downregulation of CD36 expression compared to control (CD36; 10 μM MN-001 alone) [fold]
CCCCC/C=C\C/C=C\C/C=C\C/C=C\CCCC(=O)O [ARA, arachidonic acid, reference compound]	15.3	1.8								
CCCc1c(SCCCOc2ccc(C(C)=O)c(OCCCC(=O)O)c2CCC)ccc(C(C)=O)c1O [MN-001]			17	1.7	3.7	3.7	39	43	0.6	0.6
O=S(=O)(c1ccccc1)N(CC(F)(F)F)c1ccc(C(O)(C(F)(F)F)C(F)(F)F)cc1 [T1317, reference compound]	3.8									

From patent publication US12239620B2, “Methods to decrease triglyceride synthesis in the liver” (MediciNova, Inc., priority 2021, dated 2025)
